This is an account of results in US20060058398A1, “Medicinal compositions containing vitamin k's as nerve growth factor potentiator and utilization thereof” (Hisamitsu Pharmaceutical Co., Inc., priority 2002, published 2006).

Read-outs that look alike come from different tables or passages of the source.

What all share (type): cell-based
Series [1] relates to PCD12 cells. The procedure: Cells (PCD12 cells) were harvested and plated on a complete medium of collagen-coating tissue incubation dish in the density of 1.3×10^4 cells/cm^2. After 24 hours, NGF (0-50 ng/ml) and 100 μg/ml (the maximum concentration wherein toxicity against PCD12 cells is not observed) of vitamin K1 or vitamin K2 (n=4) were added to the cells.
Series [2] concerns PCD12 cells. Description: Bioassay for neurite elongation (potentiation of NGF activity). Particulars: for number of cells having neurites (morphological change): 100 μg/ml together with NGF (10 ng/ml) (FIG. 3); for effect of potentiating neurite elongation compared with the negative control group added with NGF 10 ng/ml: 100 μg/ml vitamin K, 48 hours incubation, ratio of cells having neurites (FIG. 1); for effect of potentiating neurite elongation in PCD12 cells: 100 μg/ml, in the presence of low dose of NGF (0-50 ng/ml) (FIG. 1). The procedure: Cells (PCD12 cells) were harvested and plated on a complete medium of collagen-coating tissue incubation dish in the density of 1.3×10^4 cells/cm^2. […] After 48 hours of incubation, the ratio of cells having neurites was examined using a phase-contrast microscope under ×200 magnification. […] Each measurement in the data is the mean value calculated from examining random 6 […] duplicate experiments, whereby at least 100 cells/point was counted for calculation.

Series [3] concerns PCD12 cells. Kind of series: Effect of each inhibitor on neurite elongation potentiated by vitamin K's. Particulars: 10 μM PD98059 pretreatment, 48 hours incubation (FIG. 4). As to the method:
In order to study the action mechanism of vitamin K's, influence of MAPK kinase inhibitor (PD98059), protein kinase A (PKA) inhibitor, and protein kinase C (PKC) inhibitor (chelerythrine chloride) on the effects for potentiating neurite elongation of vitamin K's in PCD12 cells were studied. Pre-incubation of cells was carried out for 1 hour in the presence or in the absence of the inhibitor before treatment of NGF or vitamin K compound. After 48 hours of incubation, the ratio of cells having neurites was examined.

Consider `CC1=C(C/C=C(\C)CCC[C@H](C)CCC[C@H](C)CCCC(C)C)C(=O)c2ccccc2C1=O` [vitamin K1, phylloquinone], for which, in the series with PCD12 cells [1] (rat), the “maximum concentration wherein toxicity against PCD12 cells is not observed” value came to 100 µg/mL. For the same compound, in the series with PCD12 cells [2], the “number of cells having neurites (morphological change)” value is listed as “remarkably increased”, the “effect of potentiating neurite elongation compared with the negative control group added with NGF 10 ng/ml” value is “about 1.8 times” and the “effect of potentiating neurite elongation in PCD12 cells” value is given as “confirmed”.
For the compound `COc1cccc(-c2cc(=O)c3ccccc3o2)c1N` [PD98059], the “inhibition of the potentiation of vitamin K's” value in the series on PCD12 cells [3] is “almost completely inhibited”.
As to menaquinone [vitamin K2], in the series with PCD12 cells [1], the “maximum concentration wherein toxicity against PCD12 cells is not observed” value worked out at 100 µg/mL. In addition, in the series with PCD12 cells [2], the “number of cells having neurites (morphological change)” value is “remarkably increased”, the “effect of potentiating neurite elongation compared with the negative control group added with NGF 10 ng/ml” value is “about 2.4 times” and the “effect of potentiating neurite elongation in PCD12 cells” value was “confirmed”.
